# PubChem BioAssay (NCI)
#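 Five concentrations, 48 hours, 96-well plates. Abbreviation: GI50, concentration required for 50% inhibition of growth. TGI marks complete inhibition of growth.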
# How the values were obtained:
# Test in all cases: NCI-60 cell line screen, 48 h
# [1] = tested on: BT-549 breast
# [2] = tested on: CCRF-CEM leukemia
# [3] = tested on: EKVX NSCLC
# [4] = tested on: HS 578T breast
# [5] = tested on: MDA-MB-231 breast
# [6] = tested on: NCI-H522 lung
# [7] = tested on: OVCAR-4 ovarian
# [8] = tested on: SF-295 CNS
# [9] = tested on: SN12C renal
# [10] = tested on: SR leukemia
SMILES,GI50 [1] [µM],TGI [1] [µM],GI50 [2] [µM],TGI [2] [µM],GI50 [3] [µM],TGI [3] [µM],GI50 [4] [µM],TGI [4] [µM],GI50 [5] [µM],TGI [5] [µM],GI50 [6] [µM],TGI [6] [µM],GI50 [7] [µM],TGI [7] [µM],GI50 [8] [µM],TGI [8] [µM],GI50 [9] [µM],TGI [9] [µM],GI50 [10] [µM],TGI [10] [µM]
COC(=O)c1cc2c3ccccc3[nH]c2c2ncccc12,17.9,78.8,32.4,> 100,11.5,> 100,15.4,87,63.9,> 100,86,> 100,57.3,> 100,36.9,> 100,> 100,> 100,66.4,> 100
CNC(=O)OCc1c(COC(=O)NC)c(-c2ccc(Cl)c(Cl)c2)n2c1SCC2,6.23,22.4,,64.9,,72,,51,,34.4,,21.5,3.59,25.5,,35.7,,34,,39
CC1=C(CCCNS(C)(=O)=O)C2=C(C)C3(CC3)[C@@](C)(O)C(=O)C2=C1,0.749,3.89,44.1,> 100,2.31,7.72,2.73,11.1,1.63,6.5,2.09,7.7,0.9,5.32,0.634,19.9,1.78,> 100,36.2,> 100
O=C(CN1CCOCC1)Nc1ccc(Cn2nnc3c2C(=O)c2nnn(Cc4ccc(NC(=O)CN5CCOCC5)cc4)c2C3=O)cc1,1.46,2.83,0.233,1.6,1.38,2.98,1.94,8.34,0.26,> 100,0.191,0.587,0.303,1.52,1.65,3.68,0.259,0.733,0.516,3.97
O=C(O)CCCCC(CCSCc1ccccc1)SCc1ccccc1 (stereo unspecified),50.8,> 100,37,> 100,40.3,> 100,50.3,> 100,> 66.9,> 100,34.1,> 100,70.2,> 100,25.8,> 74.5,41.4,> 100,36.1,> 100
CC1CCC2(C(=O)O)CCC3(C)C(=CCC4C5(C)CC(O)C(O)C(C)(CO)C5C(O)CC43C)C2C1C (stereo unspecified),,> 93.5,,53.3,,> 100,,41.5,,72,,33.9,,> 100,,> 100,,25.8,,> 63.1
NCC(=O)NS(=O)(=O)OC[C@H]1O[C@@H](n2cnc3c(N)ncnc32)[C@H](O)[C@@H]1O,2.34,5.56,3.71,> 100,2.58,8.88,2.89,9.13,0.526,2.62,1.75,3.85,0.388,2.45,0.861,2.56,0.563,4.6,0.936,> 100
Cn1c(N2NC(=O)C(N=Nc3ccc(S(N)(=O)=O)cc3)C2=O)nc(-c2ccco2)c(C#N)c1=O (stereo unspecified),8.67,40.6,8.63,> 50,35.7,> 50,9.85,38.6,28.6,> 50,5.42,26.5,8,23.9,> 50,> 50,> 50,> 50,2.89,28.4
Cc1ccc(S(=O)(=O)N(CCOc2ccc(/C(N)=N/Cl)cc2)CCOc2ccc(/C(N)=N\Cl)cc2)cc1,14.1,36.6,11.6,> 100,18.4,93.2,4.28,22.7,44.4,> 100,13.3,76.4,16.7,> 100,7.71,42.9,5.52,> 100,27.8,> 100
CN(C)CCC(=O)N1C/C(=C/c2ccccc2)C(=O)/C(=C\c2ccccc2)C1,,2.81,,0.874,,12.6,,20.3,,2.6,,0.977,,7.98,,8.55,,3.84,,8.63
COc1cccc(/C=N/NC(=O)c2ccccc2Nc2ccnc(C(F)(F)F)c2)c1O,0.567,54.3,0.115,2.02,0.517,> 100,1.08,> 46.7,0.423,> 100,0.521,46.1,0.0822,,0.522,29.1,0.783,> 73.7,0.0477,0.417
